Columns and labels:
[1] = after 8 hours incubation at 4° C., FIG. 22

Compound	trapping of the molecule by PEEK	amount of nicotine remaining in a PEEK plate (8 h)	amount of nicotine remaining in a PDMS plate [1]
CN(CCCC(=O)c1cccnc1)N=O [NNK, 4-(methylnitrosamino)-1-(3-pyridyl)-1-butanone]	not trapped by the material	–	–
CN1CCCC1c1cccnc1 (stereo not shown) [nicotine]	not trapped by the material	about 100%	about 35%

Source: patent US12012584B2 (priority 2017, dated 2024)
